Measurements published in patent US10336775B2 (Asceneuron SA, priority 2014, dated 2019).

Target: His-Tagged hOGA (human O-GlcNAcase) (Homo sapiens (Human), UniProt O60502)
Test: Human O-GlcNAcase enzyme inhibition assay (Example B01)
Assay type: biochemical
Details: OGA IC50 (M), OGA enzyme inhibition assay; activity range classes defined in μM

His-Tagged hOGA (human O-GlcNAcase), sequence (O60502 whole entry): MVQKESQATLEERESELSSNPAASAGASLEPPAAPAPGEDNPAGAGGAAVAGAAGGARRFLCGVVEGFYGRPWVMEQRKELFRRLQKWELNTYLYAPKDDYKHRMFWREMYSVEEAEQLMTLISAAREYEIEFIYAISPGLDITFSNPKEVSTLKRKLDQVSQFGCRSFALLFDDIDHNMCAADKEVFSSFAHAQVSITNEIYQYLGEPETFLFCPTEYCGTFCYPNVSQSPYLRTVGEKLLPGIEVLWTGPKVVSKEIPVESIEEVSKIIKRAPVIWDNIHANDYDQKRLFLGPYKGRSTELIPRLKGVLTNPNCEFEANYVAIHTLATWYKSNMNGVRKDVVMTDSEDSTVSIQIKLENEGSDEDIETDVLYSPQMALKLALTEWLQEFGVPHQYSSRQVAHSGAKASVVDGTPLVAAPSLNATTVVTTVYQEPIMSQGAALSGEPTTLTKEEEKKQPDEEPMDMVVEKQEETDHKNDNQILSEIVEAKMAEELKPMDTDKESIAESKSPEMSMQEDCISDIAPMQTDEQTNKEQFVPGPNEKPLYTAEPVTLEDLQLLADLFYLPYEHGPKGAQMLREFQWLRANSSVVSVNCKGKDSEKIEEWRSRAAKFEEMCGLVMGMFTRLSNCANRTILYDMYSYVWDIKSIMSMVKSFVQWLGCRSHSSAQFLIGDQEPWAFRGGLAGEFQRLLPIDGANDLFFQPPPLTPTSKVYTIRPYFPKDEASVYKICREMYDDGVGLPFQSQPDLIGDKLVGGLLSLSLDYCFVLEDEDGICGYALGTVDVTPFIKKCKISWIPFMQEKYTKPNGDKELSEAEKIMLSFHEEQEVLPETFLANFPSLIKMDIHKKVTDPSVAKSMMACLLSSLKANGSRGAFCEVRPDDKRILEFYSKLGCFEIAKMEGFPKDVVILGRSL

Row | Compound | IC50
1 | Cc1csc(N2CCN(C(C)c3ccc4c(c3)OCO4)CC2)n1 (racemic) [Example 144, 1-[1-(1,3-benzodioxol-5-yl)ethyl]-4-(4-methyl-2-thiazolyl)-piperazine] | 2e-07 to 1e-06 M

Same assay, conditions: OGA enzyme inhibition assay; activity range classes defined in μM; read-out: OGA IC50

Row | Compound | IC50
2 | CNC(=O)c1csc(N2CCN(C(C)c3ccc4c(c3)OCCO4)CC2)n1 (racemic) [Example 50, 2-(4-(1-(2,3-dihydrobenzo[b][1,4]dioxin-6-yl)ethyl)piperazin-1-yl)-N-methylthiazole-4-carboxamide] | 5e-08 to 2e-07 M
3 | Cc1csc(C2CCN(C(C)c3ccc4c(c3)OCO4)CC2)n1 (racemic) [Example 1, 2-(1-(1-(Benzo[d][1,3]dioxol-5-yl)ethyl)piperidin-4-yl)-4-methylthiazole] | 2e-07 to 1e-06 M
4 | CC(=O)N(C)Cc1cnc(N2CCN(C(C)c3ccc4c(c3)OCO4)CC2)s1 (racemic) [Example 80, N-((2-(4-(1-(benzo[d][1,3]dioxol-5-yl)ethyl)piperazin-1-yl)thiazol-5-yl)methyl)-N-methylacetamide] | < 5e-08 M
5 | (2-(4-(1-(benzo[d][1,3]dioxol-5-yl)ethyl)piperazin-1-yl)thiazol-4-yl)methanamine [Example 84] | 5e-08 to 2e-07 M
6 | CC(c1ccc2c(c1)OCO2)N1CCN(c2ccccn2)CC1 (racemic) [Example 10, 1-(1-(Benzo[d][1,3]dioxol-5-yl)ethyl)-4-(pyridin-2-yl)piperazine] | 2e-07 to 1e-06 M
